Four compounds from patent US20080280945A1, “Crystalline forms of an HIV integrase inhibitor” (priority 2007, published 2008) can be followed below.

≈ marks a conversion by molar mass, not a printed value.

Data set [1] is described as follows: solubility in water at 25° C. (ReactArray ST system, HPLC). The class given is physicochemical. The settings on record: for Solubility: equilibrated 24 h, average of last four hours, mean ± SE of 4 samples (amorphous: 1 sample); for Comment (form of excess solid): excess solid after solubility experiment. As for the experimental part: The solubilities of crystalline ethanolate, crystalline hydrate and crystalline anhydrate were determined in water at 25° C. using a ReactArray ST™ system (Anachem, UK). Approximately 50 mg of material was transferred to a sample tube and 1.5 mL of water was added to it. The tubes were mounted on a temperature control block and the slurry was stirred at 400 rpm using a magnetic stir bar. The solution was equilibrated for 24 hours following which the concentration was monitored every hour for 6 hours.
HPLC conditions: column=C18 Bridge column (Waters Corporation), 4.6 mm×50 mm and 2.5 μm particle size; temperature=25° C., UV detection at λ=220 nm; flow rate=1 mL/minute; injection volume=5 μL; mobile phase=initial conditions at 20% acetonitrile and 80% 0.1% phosphate buffer with a gradient from 20% acetonitrile to 95% acetonitrile in 3 minutes, hold at 95% acetonitrile for 3 minutes, then from 95% to 20% acetonitrile in 0.1 minute (run time: 7 minutes), followed by 1 minute conditioning.

Data set [2] is described as follows: thermal stability studies, 2 weeks storage, HPLC and XRPD. The class given is physicochemical. The following applies: for Loss at 40° C., 75% RH / Loss at 60° C., ambient RH: 2 weeks storage, HPLC, NLQ = no loss greater than the limit of quantitation. As for the experimental part: One set of samples of the amorphous, crystalline ethanolate, crystalline hydrate, and crystalline anhydrate forms of Isomer M were stored in a GMP stability chamber at 40° C. and 75% relative humidity (RH) and another set of analogous samples was stored at 60° C. and ambient RH in a Vacuum Oven, NAPCO (National Appliance Company) Model 5831. The samples were analyzed by XRPD and by HPLC before and after 2 weeks storage. HPLC conditions: column=Symmetry Shield RP18 15 cm×4.6 mm (Waters Corporation) with 3.5 μm particle size; temperature=25° C., UV detection at λ=220 nm; flow rate=1 mL/minute; injection volume=10 μL; mobile phase=initial conditions at 20% acetonitrile and 80% 0.1% phosphate buffer with a gradient from 20% acetonitrile to 35% acetonitrile in 8 minutes, hold at 35% acetonitrile for 5 minutes, from 35% to 60% acetonitrile in 13 minutes, from 60% to 90% acetonitrile in 10 minutes (run time: 36 minutes, equilibration time: 10 minutes).

Data set [3] concerns acute HIV infection of T-lymphoid cells. In words: inhibition of acute HIV infection of T-lymphoid cells (Vacca et al.). The class given is cell-based. The following applies: n=6.
Setting [4] is: after 2 weeks at 60° C., ambient RH.

Regarding `CN1C[C@H](O)C(C)(C)Cn2c(c3c(c(O)c2=O)C(=O)N(Cc2ccc(F)c(Cl)c2)CC3)C1=O` [Crystalline anhydrate, M-(4R)-11-(3-chloro-4-fluorobenzyl)-4,9-dihydroxy-2,5,5-trimethyl-3,4,5,6,12,13-hexahydro-2H[1,4]diazocino[2,1-a]-2,6-naphthyridine-1,8,10(11H)-trione anhydrate], in data set [1], the Solubility was 0.124 (±0.010) mg/mL and the “Comment (form of excess solid)” value was “Excess solid is anhydrate”. Moreover, in data set [2], the “Loss at 40° C., 75% RH” value was “NLQ” and the “Loss at 60° C., ambient RH” value is given as “NLQ”. Also, in data set [2] (after 2 weeks at 40° C., 75% RH), the “XRPD (form change)” value is “no detectable change”. For the same compound, in data set [2] (setting [4]), the “XRPD (form change)” value was “no detectable change”.

Take `CN1C[C@H](O)C(C)(C)Cn2c(c3c(c(O)c2=O)C(=O)N(Cc2ccc(F)c(Cl)c2)CC3)C1=O` [Isomer M, M-(4R)-11-(3-chloro-4-fluorobenzyl)-4,9-dihydroxy-2,5,5-trimethyl-3,4,5,6,12,13-hexahydro-2H[1,4]diazocino[2,1-a]-2,6-naphthyridine-1,8,10(11H)-trione]: the IC95 is recorded as 15.6±0 1M in data set [3] (in the presence of 10% FBS) and 51.7±16 in data set [3] (in the presence of 50% human serum).

As to `CN1C[C@H](O)C(C)(C)Cn2c(c3c(c(O)c2=O)C(=O)N(Cc2ccc(F)c(Cl)c2)CC3)C1=O` [Crystalline ethanolate, M-(4R)-11-(3-chloro-4-fluorobenzyl)-4,9-dihydroxy-2,5,5-trimethyl-3,4,5,6,12,13-hexahydro-2H[1,4]diazocino[2,1-a]-2,6-naphthyridine-1,8,10(11H)-trione ethanolate], in data set [1], the Solubility is given as 0.071 (±0.002) mg/mL and the “Comment (form of excess solid)” value was “Excess solid converts to hydrate”. In data set [2], the “Loss at 40° C., 75% RH” value is given as 0.3 A % and the “Loss at 60° C., ambient RH” value was 11.5 A %. In data set [2] (setting [4]), the “XRPD (form change)” value is on record as “no detectable change”.

Regarding `CN1C[C@H](O)C(C)(C)Cn2c(c3c(c(O)c2=O)C(=O)N(Cc2ccc(F)c(Cl)c2)CC3)C1=O` [Amorphous, M-(4R)-11-(3-chloro-4-fluorobenzyl)-4,9-dihydroxy-2,5,5-trimethyl-3,4,5,6,12,13-hexahydro-2H[1,4]diazocino[2,1-a]-2,6-naphthyridine-1,8,10(11H)-trione], in data set [1], the Solubility is reported as 0.83 mg/mL (≈ 1740 µM) and the “Comment (form of excess solid)” value is “Excess solid is amorphous”. For the same compound, the “Loss at 40° C., 75% RH” value in data set [2] came out at 8.9 A %.
